The source of these data is patent US7396837B2, “Antitumoral analogs of lamellarins” (Pharma Mar, S.A.U., priority 2002, dated 2008).

In series [1] the test system is fertilised sea urchin. As to conditions: fertilised sea urchin assay; cited from earlier work.
The test system of series [2] is H-MEC-1. In words: SRB colorimetric cell growth inhibition assay, H-MEC-1. The format is cell-based. Conditions: Homo sapiens, HMEC-1, H-MEC-1; for GI50: GI=growth inhibition, read-out: GI50 H-MEC-1; for IC (TGI): total growth inhibition (cytostatic effect), read-out: TGI H-MEC-1. The gist of the method:
(§1)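 Growth inhibition (GI), total growth inhibition (TGI, cytostatic) and lethal concentration (LC, cytotoxic) come from an SRB-based colorimetric measure of growth and viability. Data are triplicate-well means ± SD.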

Series [3] has as its system SKOV-3. In words: SRB colorimetric cell growth inhibition assay, SKOV-3. The series is classed as cell-based. As to conditions: Homo sapiens; for GI50: SK-OV-3, SKOV-3, GI=growth inhibition, read-out: GI50 SKOV-3; for IC (TGI): total growth inhibition (cytostatic effect), read-out: TGI SKOV-3. The essentials:
as §1

Series [4] has as its target T1, human topoisomerase I (Homo sapiens, UniProt P11387).
T1 sequence (P11387 1-765): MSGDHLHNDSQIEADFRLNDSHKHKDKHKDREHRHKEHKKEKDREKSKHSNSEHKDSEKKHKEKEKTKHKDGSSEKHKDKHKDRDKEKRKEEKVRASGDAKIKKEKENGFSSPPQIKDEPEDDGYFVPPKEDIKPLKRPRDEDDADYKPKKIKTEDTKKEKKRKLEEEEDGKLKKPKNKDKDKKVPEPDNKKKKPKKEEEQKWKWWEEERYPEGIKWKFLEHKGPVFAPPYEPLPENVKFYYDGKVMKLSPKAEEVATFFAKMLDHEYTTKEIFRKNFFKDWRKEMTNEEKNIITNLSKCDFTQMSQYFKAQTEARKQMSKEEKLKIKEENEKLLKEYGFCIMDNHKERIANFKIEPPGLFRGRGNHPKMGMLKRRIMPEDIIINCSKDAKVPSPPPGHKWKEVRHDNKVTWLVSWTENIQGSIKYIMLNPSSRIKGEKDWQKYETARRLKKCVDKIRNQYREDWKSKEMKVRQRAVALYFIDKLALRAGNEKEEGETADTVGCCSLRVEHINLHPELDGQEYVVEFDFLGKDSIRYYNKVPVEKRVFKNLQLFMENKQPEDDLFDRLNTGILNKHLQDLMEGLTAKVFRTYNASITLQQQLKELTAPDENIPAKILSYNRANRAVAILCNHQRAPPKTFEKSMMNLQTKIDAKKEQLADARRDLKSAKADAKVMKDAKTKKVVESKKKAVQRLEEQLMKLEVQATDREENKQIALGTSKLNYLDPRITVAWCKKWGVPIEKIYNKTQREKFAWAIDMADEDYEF
In words: Topoisomerase I cleavage of radiolabeled 117-bp DNA fragment. The series is classed as biochemical. Conditions: for topoisomerase I-mediated DNA cleavage sites / cleavage profile: sequencing-type polyacrylamide gels. The source says:
Two assays, based on DNA relaxation and DNA cleavage (Bailly, C. DNA relaxation and cleavage assays to study topoisomerase I inhibitors. Methods Enzymol. 2001, 340, 610-623) were used evaluate the effects of the lamellarin analogs on the catalytic activity of human topoisomerase I.
A second assay, based on the cleavage of a radiolabeled DNA substrate by topoisomerase I, was used to confirm that the cationic lamellarin derivatives do effectively function as topoisomerase I poisons. A 117-bp DNA restriction fragment uniquely end-labeled at the 3′ end was subjected to cleavage by topoisomerase I in the presence of the different compounds and the resulting DNA cleavage products were resolved on sequencing-type polyacrylamide gels. The advantage of this assay is to detect the cleavage sites and to locate their positions with nucleotide resolution, providing thus information on the site selectivity of cleavage.

A short description of series [5]: SRB colorimetric cell growth inhibition assay, H-MEC-1. The format is cell-based. Conditions: human, H-MEC-1 cells; H-MEC-1; cell killing (cytotoxic effect); read-out: LC50 H-MEC-1. The gist of the method:
as §1

Where [6] appears, read: 117-bp DNA restriction fragment 3' end-labeled.

“Also recorded” adds a separate entry of the source.

Regarding `COc1cc(-c2c3c4cc(OC)c(O)cc4oc(=O)c3n3ccc4cc(O)c(OC)cc4c23)ccc1O` [Compound 3, lamellarin D, reference compound], in series [1], the “inhibition of cell division” value is on record as “inhibition of cell division”. Moreover, the results for the GI50 in series [2] and in series [3] were 113 nM and 53.7 nM, respectively. For the same compound, the IC (TGI) in series [2] was found to be 3140 nM; in series [3] (SK-OV-3, SKOV-3), 240 nM. The “topoisomerase I-mediated DNA cleavage sites / cleavage profile” value in series [4] (117-bp DNA restriction fragment 3' end-labeled, listed as LAM-D) is listed as “T^↓G or C^↓G dinucleotides; also recorded: additional cleavage site at C^↓G73”. Besides, the “efficiency of topoisomerase I-mediated DNA cleavage at sites T↓G48 and T↓G81” value in series [4] (compared with CPT) is on record as “less efficient than CPT”.

In the case of `COc1cc(-c2c3c4cc(OC)c(OC(=O)[C@@H](N)C(C)C)cc4oc(=O)c3n3ccc4cc(OC(=O)[C@@H](N)C(C)C)c(OC)cc4c23)ccc1OC(=O)[C@@H](N)C(C)C` [Compound 36], in series [5], the LC50 (concentration giving 50% net cell killing) came to 1350 nM. Also, in series [2], the GI50 (as a rule, the concentration at which growth is held to half of that of the control) was 2.65 nM and the IC (TGI) was found to be 8.6 nM. For the same compound, in series [3], the GI50 came out at 39.2 nM. Further, the LC50 (concentration causing 50% net cell killing) in series [3] (SK-OV-3, SKOV-3, cell killing (cytotoxic effect), read-out: LC50 SKOV-3) stood at 5890 nM. In series [3] (SK-OV-3, SKOV-3), the IC (TGI) worked out at 297 nM. Further, in series [4] (setting [6]), the “stimulation of DNA cleavage by topoisomerase I (radiolabeled DNA substrate)” value was “no difference between the (L) (36) and (D) (17) Val isomers”; the “topoisomerase I-mediated DNA cleavage sites / cleavage profile” value is “Cleavage profiles identical to that of 3”.
